Tests used:
[1] = Bioelimination study, amount of fluorochemical sulfonate in male rat liver tissue; format: in vivo; conditions: for Amount of Sulfonate, Day 1N / Amount of Sulfonate, Day 1 / Amount of Sulfonate, Day 14N / Amount of Sulfonate, Day 14 / Amount of Sulfonate, Day 28N / Amount of Sulfonate, Day 28: male rat liver; for Amount of Sulfonate, Day 1N / Amount of Sulfonate, Day 14N / Amount of Sulfonate, Day 28N: normalized to a feeding level of 3 mg/kg body weight per day; for Amount of Sulfonate, Day 1 / Amount of Sulfonate, Day 14 / Amount of Sulfonate, Day 28: potassium salts dosed at 30 (C4), 10 (C6), 3 (C8) mg/kg body weight/day; for elimination from the body: tested in the form of its potassium salt
Procedure: Bioelimination Study with Perfluorobutanesulfonate
Comparative study of potassium perfluorobutanesulfonate (using a dose level of 30 mg/kg body weight/day), potassium perfluorohexanesulfonate (using a dose level of 10 mg/kg body weight/day), and potassium perfluorooctanesulfonate (using a dose level of 3 mg/kg body weight/day).

[2] = Surface tension determination (Kruss K12 Tensiometer, Wilhelmy plate); format: physicochemical
Procedure: Test Method III—Surface Tension Determination
All surface tensions were determined using a Kruss K12 Tensiometer. It was integrated with an automatic dosimat and a computer, using a software package for dynamic contact angle (K121). The program was run using a Wilhelmy platinum plate (PL12) and glass sample vessel (GL7). All parts referenced above including instrument and computer can be purchased directly from Kruss USA, Charlotte, N.C.

[3] = Surface Resistivity Test (ASTM D-257) of topically coated polyester film; conditions: 72° F., 27% relative humidity; for Surface Resistivity 1% MEK solution: 1% solution in MEK coated on polyester film; for Surface Resistivity 6% MEK: 6% solution in MEK coated on polyester film
Procedure: Test Method IV—Surface Resistivity Test
The Surface Resistivity Test was conducted according to the procedure of ASTM Standard D-257; “D.C. Resistance or Conductance of Insulating Materials”. The surface resistivity was measured under these conditions using an ETS Model 872 Wide Range Resistance Meter fitted with a Model 803B probe (Electro-Tech Systems, Inc., Glenside, Pa.). This apparatus applies an external voltage of 10 Volts across two concentric ring electrodes and provides surface resistivity readings in ohm/cm^2. The room temperature was 72° F. and there was a 27% relative humidity.
Topically Coated Polyester Film.
A 1% and 6% solution of the antistatic agent to be tested in methylethyl ketone (MEK) was prepared. About 2 mL of solution was pipetted onto the top of a sheet of polyester film with 25.5 cm by 17.8 cm dimensions. The solution was then drawn over the film using a #12 wire wound bar. The resulting coating was dried in a forced air oven for 2.5 minutes at 65° C.

[4] = Thermal gravimetric analysis (TGA); format: physicochemical; conditions: for Wt. % remaining @ given Temp: nitrogen, 10° C. per minute ramp; for weight loss compared with chloride salt of the same cation: processing range of 200-320° C.
Procedure: Test Methods Test Method I—Thermal Gravimetric Analysis (TGA)
The thermal decomposition of each salt was determined by thermal gravimetric analysis (TGA) under an inert nitrogen atmosphere using a 10° C. per minute temperature ramp using a PerkinElmer Thermogravimetric Analyzer TGA 7, manufactured by PerkinElmer Instruments of Norwalk, Conn.
Table 3 provides thermal gravimetric data for antistats of the present invention and comparative antistats.

[5] = at 28 days following completion of feeding, after normalization to the same feeding levels
[6] = liver amount at 28 days following completion of feeding
[7] = liver amount immediately following completion of feeding

O=S(=O)([O-])C(F)(F)C(F)(F)C(F)(F)C(F)(F)F.[K+] [Antistat C4F9SO3K, Potassium perfluorobutane sulfonate]
factor lower than C6F13SO3^− [1, 5]: 4400 | factor lower than C6F13SO3^− [1, 6]: > 1400 | factor lower than C6F13SO3^− [1, 7]: > 100 | Amount of Sulfonate, Day 1N [1]: 0.31 ppm | Amount of Sulfonate, Day 1 [1]: 3.09 ± 1.58 ppm | Amount of Sulfonate, Day 14N [1]: 0.0126 ppm | Amount of Sulfonate, Day 14 [1]: 0.126 ± 0.084 ppm | Amount of Sulfonate, Day 28N [1]: 0.0025 ppm | Amount of Sulfonate, Day 28 [1]: 0.025 ± 0.015 ppm | elimination from the body ([1]; listed as C4F9SO3^−): unexpectedly fast and effective elimination | elimination from the body ([1]; listed as perfluorobutanesulfonate): eliminates from the body more rapidly than perfluorohexanesulfonate and much more rapidly than perfluorooctanesulfonate | surface energy ([2]; 10 ppm in water): 70 dyne/cm | surface energy ([2]; 100 ppm in water): 67.5 dyne/cm | surface energy ([2]; 1000 ppm in water): 53 dyne/cm

O=S(=O)([O-])C(F)(F)C(F)(F)C(F)(F)C(F)(F)C(F)(F)C(F)(F)C(F)(F)C(F)(F)F.[K+] [Antistat C8F17SO3K, Potassium perfluorooctanesulfonate]
Amount of Sulfonate, Day 1N [1]: 419 ppm | Amount of Sulfonate, Day 1 [1]: 419 ± 86 ppm | Amount of Sulfonate, Day 14N [1]: 309 ppm | Amount of Sulfonate, Day 14 [1]: 309 + 34 ppm | Amount of Sulfonate, Day 28N [1]: 237 ppm | Amount of Sulfonate, Day 28 [1]: 237 ± 25 ppm | surface energy ([2]; 10 ppm in water): 67.68 dyne/cm | surface energy ([2]; 100 ppm in water): 54.09 dyne/cm | surface energy ([2]; 1000 ppm in water): 33.17 dyne/cm

O=S(=O)([N-]S(=O)(=O)C(F)(F)C(F)(F)C(F)(F)C(F)(F)F)C(F)(F)C(F)(F)C(F)(F)C(F)(F)F.[K+] [C4F9SO2NKSO2C4F9, potassium bis(perfluorobutanesulfonyl)imide]
surface energy ([2]; 10 ppm in water): 61.85 dyne/cm | surface energy ([2]; 100 ppm in water): 41.61 dyne/cm | surface energy ([2]; 1000 ppm in water): 34.02 dyne/cm

O=S(=O)([O-])C(F)(F)C(F)(F)C(F)(F)C(F)(F)C(F)(F)C(F)(F)F.[K+] [C6F13SO3^−, potassium perfluorohexanesulfonate]
factor lower than C8F17SO3^− [1, 5]: 21.5 | factor lower than C8F17SO3^− [1, 6]: 6.5 | factor lower than C8F17SO3^− [1, 7]: 1.3 | Amount of Sulfonate, Day 1N [1]: 98 ppm | Amount of Sulfonate, Day 1 [1]: 327 ± 52 ppm | Amount of Sulfonate, Day 14N [1]: 19 ppm | Amount of Sulfonate, Day 14 [1]: 61.9 ± 11.7 ppm | Amount of Sulfonate, Day 28N [1]: 11 ppm | Amount of Sulfonate, Day 28 [1]: 36.3 ± 7.4 ppm

CH3CH2C[CH2(OCH2CH(CH3))xNH3^+][CH2(OCH2CH(CH3))yNH3^+][CH2(OCH2CH(CH3))zNH3^+][—N(SO2C4F9)2]3 where x+y+z˜5.3; JEFFAMINE™ T-403 DBI salt [Antistat 2]
Surface Resistivity 1% MEK solution [3]: 2.4 × 10^10 Ohm/cm^2 | Surface Resistivity 6% MEK [3]: 1.5 × 10^11 Ohm/cm^2

CH3CH2C[CH2(OCH2CH(CH3))xNH3^+][CH2(OCH2CH(CH3))yNH^3^+][CH2(OCH2CH(CH3))zNH3^+][^−N(SO2CF3)2]3 where x+y+z˜5.3; JEFFAMINE™ T-403 DMI salt [Antistat 3]
Surface Resistivity 1% MEK solution [3]: 1.7 × 10^9 Ohm/cm^2 | Surface Resistivity 6% MEK [3]: 1.1 × 10^9 Ohm/cm^2

[(+)H3NCH(CH3)CH2[OCH(CH3)CH2]a[OCH2CH2]8.5[OCH2CH(CH3)]CNH3(+)][C8F17SO3^−]2 (a+c=2.5) [Comparative Antistat 1]
Surface Resistivity 1% MEK solution [3]: 1.6 × 10^11 Ohm/cm^2 | Surface Resistivity 6% MEK [3]: 1.5 × 10^11 Ohm/cm^2

[(+)H3NCH(CH3)CH2[OCH(CH3)CH2]a[OCH2CH2]8.5[OCH2CH(CH3)]CNH3(+)][—N(SO2CF3)2]2 (a+c=2.5); JEFFAMINE™ XJT-500 [^—N(SO2CF3)2]salt [Antistat 7]
Surface Resistivity 1% MEK solution [3]: 1.2 × 10^9 Ohm/cm^2 | Surface Resistivity 6% MEK [3]: 3.7 × 10^8 Ohm/cm^2

[(+)H3NCH(CH3)CH2[OCH(CH3)CH2]a[OCH2CH2]8.5[OCH2CH(CH3)]cNH3(+)][—N(SO2C4F9)2]2 (a+c=2.5); JEFFAMINE™ XJT-500 DBI salt [Antistat 1]
Surface Resistivity 1% MEK solution [3]: 8.5 × 10^9 Ohm/cm^2 | Surface Resistivity 6% MEK [3]: 3.1 × 10^9 Ohm/cm^2

[C12H25N^+(CH3)(CH2CH2O)mH(CH2CH2O)nH][^−N(SO2CF3)2]; (m+n=15) [Antistat 4]
Wt. % remaining @ given Temp ([4]; 200° C.): 99.7 Wt. % | Wt. % remaining @ given Temp ([4]; 240° C.): 99.5 Wt. % | Wt. % remaining @ given Temp ([4]; 280° C.): 99.3 Wt. % | Wt. % remaining @ given Temp ([4]; 320° C.): 98.6 Wt. % | weight loss compared with chloride salt of the same cation [4]: less weight loss than ETHOQUAD™ C/25

[C12H25N^+(CH3)(CH2CH2O)mH(CH2CH2O)nH^−Cl] (m + n = 15) [ETHOQUAD ™ C/25]
Wt. % remaining @ given Temp ([4]; 200° C.): 97.2 Wt. % | Wt. % remaining @ given Temp ([4]; 240° C.): 89.4 Wt. % | Wt. % remaining @ given Temp ([4]; 280° C.): 85.9 Wt. % | Wt. % remaining @ given Temp ([4]; 320° C.): 81.8 Wt. %

[C18H37N^+(CH3)(CH2CH2O)mH(CH2CH2O)nH][^−N(SO2CF3)2]; (m+n=15) [Antistat 5]
Wt. % remaining @ given Temp ([4]; 200° C.): 99.6 Wt. % | Wt. % remaining @ given Temp ([4]; 240° C.): 99.2 Wt. % | Wt. % remaining @ given Temp ([4]; 280° C.): 98.9 Wt. % | Wt. % remaining @ given Temp ([4]; 320° C.): 98.0 Wt. % | weight loss compared with chloride salt of the same cation [4]: less weight loss than ETHOQUAD™ 18/25

[C18H37N^+(CH3)(CH2CH2O)mH(CH2CH2O)nH^−Cl] (m + n = 15) [ETHOQUAD ™ 18/25]
Wt. % remaining @ given Temp ([4]; 200° C.): 97.6 Wt. % | Wt. % remaining @ given Temp ([4]; 240° C.): 90.8 Wt. % | Wt. % remaining @ given Temp ([4]; 280° C.): 85.5 Wt. % | Wt. % remaining @ given Temp ([4]; 320° C.): 82.0 Wt. %

[CH3(OCH2CH2)19(OCH2CHCH3)2NH3^+][^−N(SO2CF3)2] [Antistat 6]
Surface Resistivity 1% MEK solution [3]: 1.6 × 10^9 Ohm/cm^2 | Surface Resistivity 6% MEK [3]: 7.8 × 10^9 Ohm/cm^2

[CH3(OCH2CH2)19(OCH2CHCH3)2NH3^+][^−O3SCF3] [Comparative Antistat 2]
Surface Resistivity 1% MEK solution [3]: 1.5 × 10^12 Ohm/cm^2 | Surface Resistivity 6% MEK [3]: 1.6 × 10^12 Ohm/cm^2
